# According to patent US4534978A, “Perfluorocycloamines” (The Green Cross Corporation, priority 1984, dated 1985):
# Columns and labels:
# Acute Toxicity Test = format: in vivo, Wister-strain male rats; conditions: emulsion i.v., 100 ml/kg-body weight, observed one week, male rats
# Method: The acute toxicity test on the preparations of the present invention was carried out using the preparations of the present invention shown in Table 4 which had been physiologically isotonized. The test animals used were Wister-strain male rats (weighing 100-120 g).
# The results are such that with either emulsion containing perfluoro-N-cyclohexylprrolidine or perfluoro-N-(3'-methylcyclohexyl)pyrrolidine, thre was no death case at 100 ml/kg-body weight and thus their toxicity are very small.
# [1] = Distribution of Perfluoro-compound in Organs; format: in vivo, Wister-strain male rats; conditions: 4 g/kg into the tail vein, male rats
# Source text: The content of perfluoro-N-cyclohexylpyrrolidine uptake in each organ 1, 2 and 4 weeks and 3 months after the administration are shown in Table 5.
smiles,measurement,setting,value
"FC1(F)N(C2(F)C(F)(F)C(F)(F)C(F)(F)C(F)(F)C2(F)F)C(F)(F)C(F)(F)C1(F)F [Example 1, perfluoro-N-cyclohexylpyrrolidine]",death cases,Acute Toxicity Test,no death case
same,toxicity,Acute Toxicity Test,very small
same,adverse influence on the liver or spleen organ,[1],no evidence of adverse influence on the liver or spleen organ
same,uptake by the reticulo-endothelial organs and disappearance,[1],"taken up in greater amounts by the reticulo-endothelial organs shortly after the administration, but soon disappeared rapidly"
same,Residual Rate of perfluoro-compound,"[1]; Liver, 1 week after administration",21.23%
same,Residual Rate of perfluoro-compound,"[1]; Liver, 2 weeks after administration",13.63%
same,Residual Rate of perfluoro-compound,"[1]; Liver, 3 months after administration",0.24%
same,Residual Rate of perfluoro-compound,"[1]; Liver, 4 weeks after administration",4.98%
same,Residual Rate of perfluoro-compound,"[1]; Spleen, 1 week after administration",12.33%
same,Residual Rate of perfluoro-compound,"[1]; Spleen, 2 weeks after administration",10.49%
same,Residual Rate of perfluoro-compound,"[1]; Spleen, 3 months after administration",0.51%
same,Residual Rate of perfluoro-compound,"[1]; Spleen, 4 weeks after administration",8.52%
same,half-life,"[1]; rat, in vivo, iv, 4000 mg/kg, calculated",16 days
"FC(F)(F)C1(F)C(F)(F)C(F)(F)C(F)(F)C(F)(N2C(F)(F)C(F)(F)C(F)(F)C2(F)F)C1(F)F (stereo not drawn) [Example 38, perfluoro-N-(3'-methylcyclohexyl)pyrrolidine]",death cases,Acute Toxicity Test,no death case
same,toxicity,Acute Toxicity Test,very small
